From ChEMBL document CHEMBL3351663, “Discovery of acylurea isosteres of 2-acylaminothiadiazole in the azaxanthene series of glucocorticoid receptor agonists” (Bioorg Med Chem Lett, 2014)

Legend:
Glucocorticoid receptor [1] = target: T1, Glucocorticoid receptor (Homo sapiens, UniProt P04150); test: Agonist activity at glucocorticoid receptor in human A549 cells assessed as AP-1 transrepression by luciferase reporter gene assay; format: cell-based
T1 sequence (P04150 whole entry): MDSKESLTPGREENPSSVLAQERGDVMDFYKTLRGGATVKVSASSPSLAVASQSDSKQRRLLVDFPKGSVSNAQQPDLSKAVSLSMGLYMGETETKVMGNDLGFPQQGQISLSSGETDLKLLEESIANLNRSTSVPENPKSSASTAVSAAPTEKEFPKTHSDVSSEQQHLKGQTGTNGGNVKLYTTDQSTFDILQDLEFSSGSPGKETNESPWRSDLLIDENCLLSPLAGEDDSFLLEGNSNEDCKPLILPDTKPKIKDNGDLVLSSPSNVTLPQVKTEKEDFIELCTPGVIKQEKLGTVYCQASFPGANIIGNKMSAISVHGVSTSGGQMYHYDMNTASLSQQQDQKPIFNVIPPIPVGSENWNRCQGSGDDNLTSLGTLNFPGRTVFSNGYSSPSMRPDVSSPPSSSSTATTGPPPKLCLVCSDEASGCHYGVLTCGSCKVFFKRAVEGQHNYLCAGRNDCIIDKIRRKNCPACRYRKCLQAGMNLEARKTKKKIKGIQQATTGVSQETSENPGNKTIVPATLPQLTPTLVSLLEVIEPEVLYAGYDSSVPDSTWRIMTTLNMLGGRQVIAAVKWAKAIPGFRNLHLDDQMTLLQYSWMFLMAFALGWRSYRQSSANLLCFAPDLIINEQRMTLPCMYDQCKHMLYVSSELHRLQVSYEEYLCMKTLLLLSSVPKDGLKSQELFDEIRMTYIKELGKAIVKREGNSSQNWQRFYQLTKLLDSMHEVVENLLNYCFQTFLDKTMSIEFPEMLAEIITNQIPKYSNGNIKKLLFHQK

Progesterone receptor = target: T2, Progesterone receptor (Homo sapiens, UniProt P06401); test: Binding affinity to progesterone receptor (unknown origin) by fluorescence polarization assay
T2 sequence (P06401 whole entry): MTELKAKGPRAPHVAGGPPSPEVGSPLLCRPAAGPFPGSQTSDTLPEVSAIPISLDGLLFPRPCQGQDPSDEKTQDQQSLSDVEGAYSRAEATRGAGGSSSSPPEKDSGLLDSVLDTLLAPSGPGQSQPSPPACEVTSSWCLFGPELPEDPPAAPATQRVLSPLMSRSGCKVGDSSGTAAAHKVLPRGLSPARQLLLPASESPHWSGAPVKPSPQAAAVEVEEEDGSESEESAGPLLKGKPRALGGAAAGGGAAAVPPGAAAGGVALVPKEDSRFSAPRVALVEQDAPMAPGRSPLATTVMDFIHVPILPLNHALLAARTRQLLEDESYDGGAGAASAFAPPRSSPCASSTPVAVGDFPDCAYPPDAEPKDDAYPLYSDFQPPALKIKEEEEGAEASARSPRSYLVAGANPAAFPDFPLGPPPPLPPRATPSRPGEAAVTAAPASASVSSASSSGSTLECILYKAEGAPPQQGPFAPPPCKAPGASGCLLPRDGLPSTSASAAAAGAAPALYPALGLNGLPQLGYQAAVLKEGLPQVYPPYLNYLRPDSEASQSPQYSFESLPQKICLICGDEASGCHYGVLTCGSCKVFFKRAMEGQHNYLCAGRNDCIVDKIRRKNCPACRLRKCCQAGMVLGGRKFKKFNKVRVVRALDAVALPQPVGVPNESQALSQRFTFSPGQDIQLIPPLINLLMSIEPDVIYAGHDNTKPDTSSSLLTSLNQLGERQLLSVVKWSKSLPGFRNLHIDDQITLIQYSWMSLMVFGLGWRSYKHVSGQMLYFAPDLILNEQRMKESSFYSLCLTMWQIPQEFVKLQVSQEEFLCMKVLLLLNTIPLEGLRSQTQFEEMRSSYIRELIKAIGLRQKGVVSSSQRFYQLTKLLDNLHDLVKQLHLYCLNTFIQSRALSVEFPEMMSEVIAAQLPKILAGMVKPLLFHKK

Glucocorticoid receptor [2] = target: T1, Glucocorticoid receptor; set-up: species or system Blood
Glucocorticoid receptor [3] = target: T1, Glucocorticoid receptor; test: Agonist activity at glucocorticoid receptor in human HeLa cells assessed as NP-1 transactivation by luciferase reporter gene assay; format: cell-based
Glucocorticoid receptor [4] = target: T1, Glucocorticoid receptor; test: Binding affinity to glucocorticoid receptor (unknown origin) by fluorescence polarization assay
Glucocorticoid receptor [5] = target: T1, Glucocorticoid receptor; test: Agonist activity at glucocorticoid receptor in human A549 cells assessed as E-selectin transrepression by luciferase reporter gene assay; format: cell-based
Liver microsome [6] = test: Metabolic stability in human liver microsomes assessed as compound remaining
Liver = test: Metabolic stability in mouse liver microsomes assessed as compound remaining
Liver microsome [7] = test: Metabolic stability in rat liver microsomes assessed as compound remaining
[8] = Half life in rat liver microsomes; format: ADME
[9] = Drug uptake in Lewis rat serum at 10 mg/kg, po after 3 hrs; format: ADME, organism-based; set-up: dose 10 mg/kg, route oral; settings: read-out: Drug uptake
[10] = Oral bioavailability in dog at 5 mg/kg; format: ADME, organism-based, Canis lupus familiaris; settings: in vivo
[11] = Clearance in rat at 1 mg/kg, iv; format: ADME, organism-based; set-up: dose 1 mg/kg, route intravenous; settings: in vivo
[12] = Clearance in iv dosed dog; format: ADME, organism-based, Canis lupus familiaris; settings: in vivo
Rattus norvegicus [13] = organism: Rattus norvegicus; test: animal or person; format: functional; settings: Lewis, route oral
[14] = Half life in dog liver microsomes; format: ADME, Canis lupus familiaris
[15] = Oral bioavailability in rat at 10 mg/kg; format: ADME, organism-based; settings: in vivo
[16] = Half life in human liver microsomes; settings: liver microsomes
Rattus norvegicus [17] = test: Antiinflammatory activity in Lewis rat assessed as inhibition of LPS-induced TNF-alpha production at 30 mg/kg, po administered 90 mins prior to LPS challenge measured after 90 mins relative to vehicle-treated control; format: functional

SMILES	EC50 (Glucocorticoid receptor [1])	Ki (Progesterone receptor)	EC50 (Glucocorticoid receptor [2])	EC50 (Glucocorticoid receptor [3])	Ki (Glucocorticoid receptor [4])	EC50 (Glucocorticoid receptor [5])	Stability (Liver microsome [6])	Stability (Liver)	Stability (Liver microsome [7])	further results
CCN(C)C(=O)c1ccc(-c2ccc3c(n2)Oc2ccccc2[C@@H]3C(C)(C)C(=O)Nc2nncs2)cc1	17.7 nM	1830 nM	379 nM	98.5 nM	1.6 nM	6.89 nM	–	–	–	–
CC(C)(C(=O)NC(=O)C1CC1)[C@@H]1c2ccc(-c3ccc(C(=O)N4CCOCC4)cc3)nc2Oc2c(F)cccc21	18.4 nM	2040 nM	418 nM	177 nM	8.5 nM	17.6 nM	–	–	–	–
CC(C)(O)c1ccc(-c2ccc3c(n2)Oc2c(F)cccc2[C@@H]3C(C)(C)C(=O)NC(N)=O)cn1	21.9 nM	106 nM	199 nM	107 nM	4 nM	14.7 nM	73%	76%	83%	–
CC(C)(C(=O)NC(N)=O)[C@H]1c2ccccc2Oc2nc(-c3ccc(C(=O)N4CCOCC4)cc3)ccc21	6.2 nM	282 nM	3050 nM	11 nM	1.5 nM	4.8 nM	95%	75%	86%	–
CNC(=O)NC(=O)C(C)(C)[C@@H]1c2ccc(-c3ccc(C(=O)N4CCOCC4)cc3)nc2Oc2c(F)cccc21	10.7 nM	1170 nM	1040 nM	302 nM	6.9 nM	16.1 nM	–	–	–	–
CC(C)Oc1ccc(-c2ccc3c(n2)Oc2c(F)cccc2[C@@H]3C(C)(C)C(=O)NC(N)=O)cn1	6.7 nM	313 nM	355 nM	59.2 nM	0.7 nM	3.8 nM	97%	86%	58%	half-life [8]: 0.233 h; concentration at 3 h [9]: 500 nM; bioavailability [10]: 82%; clearance [11]: 20.8 mL/min/kg; clearance [12]: 9 mL/min/kg; inhibition in vivo at 10 mg/kg (Rattus norvegicus [13]): 69%; half-life [14]: 1.63 h; bioavailability [15]: 25.7%; half-life [16]: 3.18 h
COc1ccc(CNC(=O)NC(=O)C(C)(C)[C@@H]2c3ccc(-c4ccc(C(=O)N5CCOCC5)cc4)nc3Oc3c(F)cccc32)cc1	–	623 nM	–	–	–	–	–	–	–	–
CC(=O)NC(=O)C(C)(C)[C@@H]1c2ccc(-c3ccc(C(=O)N(C)C)cc3)nc2Oc2c(F)cccc21	213 nM	12400 nM	1890 nM	1050 nM	69.4 nM	109 nM	–	–	–	–
CC(=O)NC(=O)C(C)(C)[C@@H]1c2ccc(-c3ccc(C(=O)N4CCCC4)cc3)nc2Oc2c(F)cccc21	5.1 nM	12400 nM	218 nM	27 nM	2.5 nM	3.6 nM	–	–	–	–
CC(C)(C(=O)NC(N)=O)[C@@H]1c2ccc(-c3ccc(C(=O)N4CCCC4)nc3)nc2Oc2c(F)cccc21	16.5 nM	1360 nM	211 nM	113 nM	2 nM	12.2 nM	73%	86%	86%	–
CC(C)(C(=O)NC(N)=O)[C@@H]1c2ccc(-c3ccc(C(=O)N4CC[C@H](F)C4)cc3)nc2Oc2c(F)cccc21	0.8 nM	33300 nM	–	1.3 nM	1.2 nM	0.6 nM	56%	77%	67%	–
CC(C)(C(=O)NC(N)=O)[C@H]1c2ccccc2Oc2nc(-c3ccc(C(=O)N4CCCC4)cc3)ccc21	8.7 nM	2320 nM	207 nM	49.3 nM	1.9 nM	5 nM	78%	76%	49%	–
CC(=O)NC(=O)C(C)(C)[C@@H]1c2ccc(-c3ccc(C(=O)N4CCOCC4)cc3)nc2Oc2c(F)cccc21	5 nM	268 nM	88 nM	14 nM	5.9 nM	3.2 nM	–	–	–	–
C[C@@H]1C[C@H]2[C@@H]3CCC4=CC(=O)C=C[C@]4(C)[C@@]3(F)[C@@H](O)C[C@]2(C)[C@@]1(O)C(=O)CO [DEXAMETHASONE]	–	778 nM	–	–	–	–	–	–	–	–
CC(C)(C(=O)NC(=O)C1CCC1)[C@@H]1c2ccc(-c3ccc(C(=O)N4CCOCC4)cc3)nc2Oc2c(F)cccc21	17.5 nM	5340 nM	2380 nM	586 nM	8.7 nM	32.8 nM	–	–	–	–
CC(C)(C(=O)NC(N)=O)[C@@H]1c2ccc(-c3ccc(C(=O)N4CCCC4)cc3)nc2Oc2c(F)cccc21	1.6 nM	604 nM	–	5.3 nM	0.7 nM	1.4 nM	89%	73%	71%	–
CC(C)(C(=O)NC(N)=O)[C@@H]1c2ccc(-c3ccc(C(=O)N4CCOCC4)nc3)nc2Oc2c(F)cccc21	–	22.7 nM	–	–	–	–	–	–	–	–
CN(C)C(=O)NC(=O)C(C)(C)[C@@H]1c2ccc(-c3ccc(C(=O)N4CCOCC4)cc3)nc2Oc2c(F)cccc21	907 nM	10600 nM	–	8910 nM	110 nM	203 nM	–	–	–	–
CC(C)(C(=O)NC(=O)NC1CCC1)[C@@H]1c2ccc(-c3ccc(C(=O)N4CCOCC4)cc3)nc2Oc2c(F)cccc21	17.5 nM	5340 nM	2380 nM	676 nM	8.7 nM	32.8 nM	–	–	–	–
CN(C)C(=O)c1ccc(-c2ccc3c(n2)Oc2ccccc2[C@@H]3C(C)(C)C(=O)Nc2nncs2)cc1	33.2 nM	1530 nM	830 nM	242 nM	1.9 nM	33.8 nM	–	–	–	–
C[C@]12C=CC(=O)C=C1CC[C@@H]1[C@@H]2[C@@H](O)C[C@@]2(C)[C@H]1CC[C@]2(O)C(=O)CO [PREDNISOLONE]	–	–	–	–	–	–	–	–	–	inhibition in vivo at 30 mg/kg (Rattus norvegicus [17]): 75%
CCNC(=O)NC(=O)C(C)(C)[C@@H]1c2ccc(-c3ccc(C(=O)N4CCOCC4)cc3)nc2Oc2c(F)cccc21	–	2910 nM	–	–	–	–	–	–	–	–
CC(C)C(=O)NC(=O)C(C)(C)[C@@H]1c2ccc(-c3ccc(C(=O)N4CCOCC4)cc3)nc2Oc2c(F)cccc21	23.7 nM	5040 nM	389 nM	1040 nM	–	74.8 nM	–	–	–	–
